Where “and” joins values, the source holds several entries; their conditions need not be identical. Identical values can stand only once.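 Briefly, cells in 96-well plates were exposed to five compound concentrations for 48 h, and endpoints were estimated by linear interpolation. Abbreviation: GI50, concentration required for 50% inhibition of growth. TGI: total growth inhibition.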
What was measured:
Assay in all cases: inhibition of tumour cell growth, NCI panel, 48 h
UACC-257 melanoma = test system: UACC-257 melanoma
MDA-MB-231 breast = test system: MDA-MB-231 breast
SN12C renal = test system: SN12C renal
SNB-19 CNS = test system: SNB-19 CNS
SK-MEL-5 melanoma = test system: SK-MEL-5 melanoma
MALME-3M melanoma = test system: MALME-3M melanoma
HCT-116 colon = test system: HCT-116 colon
786-0 renal = test system: 786-0 renal
UACC-62 melanoma = test system: UACC-62 melanoma
MCF7 breast = test system: MCF7 breast
T-47D breast = test system: T-47D breast
PC-3 prostate = test system: PC-3 prostate
A549 NSCLC = test system: A549 NSCLC
OVCAR-8 ovarian = test system: OVCAR-8 ovarian
NCI-H226 lung = test system: NCI-H226 lung
BT-549 breast = test system: BT-549 breast
DU-145 prostate = test system: DU-145 prostate
LOX IMVI melanoma = test system: LOX IMVI melanoma
MDA-N = test system: MDA-N
HS 578T breast = test system: HS 578T breast
HL-60(TB) leukemia = test system: HL-60(TB) leukemia
SF-539 CNS = test system: SF-539 CNS
U251 CNS = test system: U251 CNS
CAKI-1 renal = test system: CAKI-1 renal
MDA-MB-435 = test system: MDA-MB-435
MOLT-4 leukemia = test system: MOLT-4 leukemia
SNB-75 CNS = test system: SNB-75 CNS
SF-295 CNS = test system: SF-295 CNS
UO-31 renal = test system: UO-31 renal
OVCAR-5 ovarian = test system: OVCAR-5 ovarian
NCI-H23 lung = test system: NCI-H23 lung
NCI-H460 lung = test system: NCI-H460 lung
SW-620 colon = test system: SW-620 colon
SK-MEL-28 melanoma = test system: SK-MEL-28 melanoma
OVCAR-4 ovarian = test system: OVCAR-4 ovarian
EKVX NSCLC = test system: EKVX NSCLC
TK-10 renal = test system: TK-10 renal
NCI-H522 lung = test system: NCI-H522 lung
HOP-62 NSCLC = test system: HOP-62 NSCLC
HCC-2998 colon = test system: HCC-2998 colon
HT29 colon = test system: HT29 colon
SK-OV-3 ovarian = test system: SK-OV-3 ovarian
SK-MEL-2 melanoma = test system: SK-MEL-2 melanoma
NCI/ADR-RES ovarian = test system: NCI/ADR-RES ovarian
CCRF-CEM leukemia = test system: CCRF-CEM leukemia
HCT-15 colon = test system: HCT-15 colon
RPMI-8226 leukemia = test system: RPMI-8226 leukemia
SR leukemia = test system: SR leukemia
HOP-92 NSCLC = test system: HOP-92 NSCLC
M14 melanoma = test system: M14 melanoma
KM12 colon = test system: KM12 colon
ACHN renal = test system: ACHN renal
OVCAR-3 ovarian = test system: OVCAR-3 ovarian
IGROV1 ovarian = test system: IGROV1 ovarian
COLO 205 colon = test system: COLO 205 colon
K-562 leukemia = test system: K-562 leukemia
A498 renal = test system: A498 renal
SF-268 CNS = test system: SF-268 CNS

O=C(O)/C=N/NC(=S)NC1CCCCC1
TGI (UACC-257 melanoma): > 100 µM
TGI (MDA-MB-231 breast): > 100 µM
TGI (SN12C renal): > 100 µM
TGI (SNB-19 CNS): > 100 µM
TGI (SK-MEL-5 melanoma): > 100 µM
TGI (MALME-3M melanoma): > 100 µM
TGI (HCT-116 colon): > 100 µM
TGI (786-0 renal): > 100 µM
TGI (UACC-62 melanoma): > 100 µM
TGI (MCF7 breast): > 100 µM
TGI (T-47D breast): > 100 µM
TGI (PC-3 prostate): > 100 µM
TGI (A549 NSCLC): > 100 µM
TGI (OVCAR-8 ovarian): > 100 µM
TGI (NCI-H226 lung): > 100 µM
TGI (BT-549 breast): > 100 µM
TGI (DU-145 prostate): > 100 µM
TGI (LOX IMVI melanoma): > 100 µM
TGI (MDA-N): > 100 µM
TGI (HS 578T breast): > 100 µM
TGI (HL-60(TB) leukemia): > 100 µM
TGI (SF-539 CNS): > 100 µM
TGI (U251 CNS): > 100 µM
TGI (CAKI-1 renal): > 100 µM
TGI (MDA-MB-435): > 100 µM
TGI (MOLT-4 leukemia): > 100 µM
TGI (SNB-75 CNS): > 100 µM
TGI (SF-295 CNS): > 100 µM
TGI (UO-31 renal): > 100 µM
TGI (OVCAR-5 ovarian): > 100 µM
TGI (NCI-H23 lung): > 100 µM
TGI (NCI-H460 lung): > 100 µM
TGI (SW-620 colon): > 100 µM
TGI (SK-MEL-28 melanoma): > 100 µM
TGI (OVCAR-4 ovarian): > 100 µM
TGI (EKVX NSCLC): > 100 µM
TGI (TK-10 renal): > 100 µM
TGI (NCI-H522 lung): > 100 µM
TGI (HOP-62 NSCLC): > 100 µM
TGI (HCC-2998 colon): > 100 µM
TGI (HT29 colon): > 100 µM
TGI (SK-OV-3 ovarian): > 100 µM
TGI (SK-MEL-2 melanoma): > 100 µM
TGI (NCI/ADR-RES ovarian): > 100 µM
TGI (CCRF-CEM leukemia): > 100 µM
TGI (HCT-15 colon): > 100 µM
TGI (RPMI-8226 leukemia): > 100 µM
TGI (SR leukemia): > 100 µM
TGI (HOP-92 NSCLC): > 100 µM
TGI (M14 melanoma): > 100 µM
TGI (KM12 colon): > 100 µM
TGI (ACHN renal): > 100 µM
TGI (OVCAR-3 ovarian): > 100 µM
TGI (IGROV1 ovarian): > 100 µM
TGI (COLO 205 colon): > 100 µM
TGI (K-562 leukemia): > 100 µM
TGI (A498 renal): > 100 µM

COc1ccc2c(c1OC)CN1CCc3cc4c(cc3C1C2)OCO4 (configuration not stated)
TGI (UACC-257 melanoma): > 100 µM
TGI (MDA-MB-231 breast): > 100 µM
TGI (SN12C renal): > 100 µM
TGI (SNB-19 CNS): > 100 µM
TGI (SK-MEL-5 melanoma): > 100 µM
TGI (MALME-3M melanoma): > 100 µM
TGI (HCT-116 colon): > 100 µM
TGI (786-0 renal): > 100 µM
TGI (UACC-62 melanoma): > 100 µM
TGI (MCF7 breast): > 100 µM
TGI (T-47D breast): > 100 µM
TGI (PC-3 prostate): > 100 µM
TGI (A549 NSCLC): > 100 µM
TGI (OVCAR-8 ovarian): > 100 µM
TGI (NCI-H226 lung): > 100 µM
TGI (BT-549 breast): > 100 µM
TGI (DU-145 prostate): > 100 µM
TGI (LOX IMVI melanoma): > 100 µM
TGI (MDA-N): > 100 µM
TGI (HS 578T breast): > 100 µM
TGI (HL-60(TB) leukemia): > 100 µM
TGI (SF-539 CNS): > 100 µM
TGI (U251 CNS): > 100 µM
TGI (CAKI-1 renal): > 100 µM
TGI (MDA-MB-435): > 100 µM
TGI (MOLT-4 leukemia): > 100 µM
TGI (SNB-75 CNS): > 100 µM
TGI (SF-295 CNS): > 100 µM
TGI (UO-31 renal): > 100 µM
TGI (OVCAR-5 ovarian): > 100 µM
TGI (NCI-H23 lung): > 100 µM
TGI (NCI-H460 lung): > 100 µM
TGI (SW-620 colon): > 100 µM
TGI (SK-MEL-28 melanoma): > 100 µM
TGI (OVCAR-4 ovarian): > 100 µM
TGI (EKVX NSCLC): > 100 µM
TGI (TK-10 renal): > 100 µM
TGI (NCI-H522 lung): > 100 µM
TGI (HOP-62 NSCLC): > 100 µM
TGI (SF-268 CNS): > 100 µM
TGI (HCC-2998 colon): > 100 µM
GI50 (HT29 colon): 30.8 µM and 76.1 µM
TGI (HT29 colon): > 100 µM
TGI (SK-OV-3 ovarian): > 100 µM
TGI (SK-MEL-2 melanoma): > 100 µM
TGI (NCI/ADR-RES ovarian): > 100 µM
GI50 (CCRF-CEM leukemia): > 100 µM
TGI (CCRF-CEM leukemia): > 100 µM
TGI (HCT-15 colon): > 100 µM
TGI (RPMI-8226 leukemia): > 100 µM
TGI (SR leukemia): > 100 µM
TGI (HOP-92 NSCLC): > 100 µM
TGI (M14 melanoma): > 100 µM
TGI (KM12 colon): > 100 µM
TGI (ACHN renal): > 100 µM
TGI (OVCAR-3 ovarian): > 100 µM
TGI (IGROV1 ovarian): > 100 µM
TGI (COLO 205 colon): > 100 µM
TGI (K-562 leukemia): > 100 µM
TGI (A498 renal): > 100 µM

Reference: PubChem BioAssay (NCI)
